Experimental data reported in ChEMBL document CHEMBL1201862, “PubChem BioAssay data set” (2004).
The source made the active and inactive calls.

How the values were obtained:
Phosphomannomutase 2 = Phosphomannomutase 2 (Homo sapiens, UniProt O15305); test: Counter screen SAR assay for PMM2 inhibitors via a fluorescence intensity assay. [Related pubchem assays (depositor defined):AID1545, AID1574]
[1] = biological target: T1, Mannose-6-phosphate isomerase (Homo sapiens, UniProt P34949); test: phosphomannose isomerase inhibition – biochemical, fluorescence intensity, confirmation (AID 1535)
T1 sequence (P34949 whole entry): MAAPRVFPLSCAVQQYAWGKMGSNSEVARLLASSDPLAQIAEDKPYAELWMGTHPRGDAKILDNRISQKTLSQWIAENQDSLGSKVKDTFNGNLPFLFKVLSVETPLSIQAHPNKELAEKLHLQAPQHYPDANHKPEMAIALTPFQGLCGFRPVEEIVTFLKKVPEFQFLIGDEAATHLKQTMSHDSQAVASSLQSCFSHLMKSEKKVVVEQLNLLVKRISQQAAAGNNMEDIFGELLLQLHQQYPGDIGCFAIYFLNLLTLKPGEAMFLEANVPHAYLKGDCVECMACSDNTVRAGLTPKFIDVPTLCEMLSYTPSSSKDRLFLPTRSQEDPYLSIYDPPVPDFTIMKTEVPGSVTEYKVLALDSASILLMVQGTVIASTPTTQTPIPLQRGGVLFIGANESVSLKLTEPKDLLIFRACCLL

Phospholipase A2 [2] = biological target: T2, Phospholipase A2 (Homo sapiens, UniProt P04054); format: functional;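 note: confirmatory dose-response counterscreen on phospholipase A2, testing hits that came from an ultra-high-throughput screen for ATG4B inhibitors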
Cysteine protease ATG4B [3] = biological target: T3, Cysteine protease ATG4B (Homo sapiens, UniProt Q9Y4P1); test: autophagin-1 cysteine protease inhibition – biochemical, fluorescence, set 2, dose response (AID 588584); format: functional
T3 sequence (Q9Y4P1 whole entry): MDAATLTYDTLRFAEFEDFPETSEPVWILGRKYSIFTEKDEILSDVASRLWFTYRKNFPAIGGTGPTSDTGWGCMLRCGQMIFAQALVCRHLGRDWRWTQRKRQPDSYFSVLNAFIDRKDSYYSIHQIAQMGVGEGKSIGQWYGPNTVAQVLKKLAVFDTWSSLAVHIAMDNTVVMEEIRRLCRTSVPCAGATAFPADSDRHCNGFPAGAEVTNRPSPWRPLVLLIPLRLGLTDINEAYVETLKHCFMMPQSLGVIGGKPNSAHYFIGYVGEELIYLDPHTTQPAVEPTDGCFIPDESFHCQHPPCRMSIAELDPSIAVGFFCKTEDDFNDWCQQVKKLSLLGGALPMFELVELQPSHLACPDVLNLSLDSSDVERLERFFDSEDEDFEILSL

cells [4] = format: functional, cell-based
Phospholipase A2 [5] = biological target: T2, Phospholipase A2; test: phospholipase A2 activity inhibition – biochemical, set 2, counter-screen for ATG4B inhibitor project, dose response (AID 588586); format: functional
cells [6] = format: functional, cell-based; remark: listed apart in the source
[7] = Luminescence Cell-Based Dose Retest to Confirm Inhibitors of Cancer Stem Cells. [Related pubchem assays (depositor defined):AID2717, AID2721]; format: functional; conditions: Homo sapiens
Cysteine protease ATG4B [8] = biological target: T3, Cysteine protease ATG4B; format: functional
Cytochrome P450 1A2 = biological target: T4, Cytochrome P450 1A2 (Homo sapiens, UniProt P05177);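 note: PubChem cytochrome P450 panel assay, CYP1A2 panel member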
T4 sequence (P05177 whole entry): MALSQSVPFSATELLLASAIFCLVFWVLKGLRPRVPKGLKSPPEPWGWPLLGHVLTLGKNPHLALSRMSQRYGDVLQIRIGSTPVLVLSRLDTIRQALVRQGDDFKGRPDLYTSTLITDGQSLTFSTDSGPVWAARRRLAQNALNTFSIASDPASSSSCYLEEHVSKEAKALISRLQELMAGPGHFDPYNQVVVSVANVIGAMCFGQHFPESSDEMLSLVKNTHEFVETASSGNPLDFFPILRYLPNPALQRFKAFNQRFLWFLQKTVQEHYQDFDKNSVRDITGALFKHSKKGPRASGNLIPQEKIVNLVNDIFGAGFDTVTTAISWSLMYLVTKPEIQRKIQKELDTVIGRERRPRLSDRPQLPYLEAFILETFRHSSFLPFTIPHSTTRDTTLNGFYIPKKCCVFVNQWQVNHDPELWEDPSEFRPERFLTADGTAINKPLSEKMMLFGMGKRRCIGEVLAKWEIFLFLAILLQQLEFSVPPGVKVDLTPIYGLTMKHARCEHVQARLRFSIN

[9] = biological target: T5, Alkaline phosphatase, tissue-nonspecific isozyme (Homo sapiens, UniProt P05186); test: inhibition of tissue-nonspecific alkaline phosphatase – biochemical, dose response (AID 488882); format: functional
T5 sequence (P05186 whole entry): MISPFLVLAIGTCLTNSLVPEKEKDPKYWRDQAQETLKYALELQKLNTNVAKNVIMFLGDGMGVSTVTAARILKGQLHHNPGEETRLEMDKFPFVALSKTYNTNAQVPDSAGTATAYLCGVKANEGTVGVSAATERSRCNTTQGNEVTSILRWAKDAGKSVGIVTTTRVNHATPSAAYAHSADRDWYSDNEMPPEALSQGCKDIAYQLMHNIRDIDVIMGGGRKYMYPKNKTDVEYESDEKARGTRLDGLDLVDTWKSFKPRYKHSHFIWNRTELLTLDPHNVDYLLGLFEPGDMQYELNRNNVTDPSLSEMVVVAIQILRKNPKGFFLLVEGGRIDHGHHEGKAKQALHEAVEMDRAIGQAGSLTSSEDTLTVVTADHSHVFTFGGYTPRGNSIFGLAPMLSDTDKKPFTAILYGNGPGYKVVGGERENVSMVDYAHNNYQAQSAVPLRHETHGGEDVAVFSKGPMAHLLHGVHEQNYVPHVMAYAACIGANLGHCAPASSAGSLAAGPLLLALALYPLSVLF

[10] = biological target: T6, Intestinal-type alkaline phosphatase (Homo sapiens, UniProt P09923); test: Dose Response confirmation of uHTS hits from a small molecule inhibitors of human intestinal alkaline phosphatase via a luminescent assay. [Related pubchem assays (depositor defined):AID2544, AID2574]; format: functional
[11] = biological target: Intestinal-type alkaline phosphatase (Mus musculus, UniProt P24822); test: PubChem AID 488874; format: functional
[12] = biological target: T6, Intestinal-type alkaline phosphatase; test: inhibition of human intestinal alkaline phosphatase – biochemical, luminescent, uHTS hits, set 2, dose response (AID 488793); format: functional
Cytochrome P450 2C19 = Cytochrome P450 2C19 (Homo sapiens, UniProt P33261); test: Cytochrome panel assay with activity outcomes. Panel member name: p450-cyp2c19 Compounds with AC50 equal or less than 10 uM are considered active; format: functional
Cytochrome P450 2D6 = Cytochrome P450 2D6 (Homo sapiens, UniProt P10635);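 note: CYP2D6 member of a cytochrome P450 panel assay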
Keap1/Nrf2 = Keap1/Nrf2 (Homo sapiens, UniProt Q14145); test: disruptors of Keap1 binding to Nrf2 peptide – biochemical, fluorescence polarization, cherry-picked samples, dose response (AID 588683)
[13] = biological target: T7, Apoptotic protease-activating factor 1 (Homo sapiens, UniProt O14727); test: activation of Apaf-1 mediated apoptosis – fluorescent, uHTS hits, dose response (AID 588554); format: functional
T7 sequence (O14727 whole entry): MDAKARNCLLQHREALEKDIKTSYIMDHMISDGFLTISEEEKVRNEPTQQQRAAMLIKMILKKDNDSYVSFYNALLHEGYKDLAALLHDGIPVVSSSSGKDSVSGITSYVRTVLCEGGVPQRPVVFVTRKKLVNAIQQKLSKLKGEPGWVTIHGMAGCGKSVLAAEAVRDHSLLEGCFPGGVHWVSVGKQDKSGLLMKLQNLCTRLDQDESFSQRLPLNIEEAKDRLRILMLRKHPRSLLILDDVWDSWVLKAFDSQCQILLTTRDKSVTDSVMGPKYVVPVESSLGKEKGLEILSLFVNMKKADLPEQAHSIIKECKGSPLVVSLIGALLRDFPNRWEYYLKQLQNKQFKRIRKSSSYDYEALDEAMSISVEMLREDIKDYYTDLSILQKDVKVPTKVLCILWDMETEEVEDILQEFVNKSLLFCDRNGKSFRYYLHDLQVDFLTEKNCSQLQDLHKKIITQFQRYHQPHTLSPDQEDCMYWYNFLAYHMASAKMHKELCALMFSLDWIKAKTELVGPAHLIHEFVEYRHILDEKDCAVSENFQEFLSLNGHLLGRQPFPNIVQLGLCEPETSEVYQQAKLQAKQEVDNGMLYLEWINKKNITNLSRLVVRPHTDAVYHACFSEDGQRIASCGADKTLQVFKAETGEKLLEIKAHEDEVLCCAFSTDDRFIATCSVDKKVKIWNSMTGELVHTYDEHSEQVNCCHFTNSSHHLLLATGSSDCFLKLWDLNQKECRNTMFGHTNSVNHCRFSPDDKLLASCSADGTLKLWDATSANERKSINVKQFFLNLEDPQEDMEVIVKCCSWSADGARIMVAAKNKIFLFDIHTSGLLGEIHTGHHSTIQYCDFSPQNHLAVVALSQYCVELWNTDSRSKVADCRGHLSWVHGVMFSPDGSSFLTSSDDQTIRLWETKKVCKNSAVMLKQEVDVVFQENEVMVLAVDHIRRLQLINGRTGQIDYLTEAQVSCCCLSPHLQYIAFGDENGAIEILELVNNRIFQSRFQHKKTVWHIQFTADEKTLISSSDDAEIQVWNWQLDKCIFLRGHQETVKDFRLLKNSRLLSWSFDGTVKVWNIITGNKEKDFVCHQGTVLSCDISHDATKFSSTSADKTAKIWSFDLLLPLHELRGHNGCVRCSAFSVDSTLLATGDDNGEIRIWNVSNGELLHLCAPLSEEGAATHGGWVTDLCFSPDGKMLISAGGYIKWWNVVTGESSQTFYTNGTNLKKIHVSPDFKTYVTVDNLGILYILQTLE

[14] = viability loss of HMLE_sh_eGFP cells – cell-based, luminescence, counter-screen for HMLE_sh_ECad selective toxicity project, dose response (AID 463074); format: functional, Homo sapiens;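 note: HMLE human mammary epithelial cells expressing control shRNA against eGFP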
Exodeoxyribonuclease V = Exodeoxyribonuclease V (Escherichia coli (strain K12), UniProt P04993+P07648+P08394); test: RecBCD inhibition via phage-restricted bacterial growth – absorbance, V66 E. coli, mutant T4 phage, counter-screen for AddAB inhibitor project, dose response (AID 492957); format: functional, cell-based, Escherichia coli str. K-12 substr. MG1655
[15] = Counterscreen for AddAB inhibitors: absorbance-based bacterial cell-based high throughput dose response assay for inhibitors of bacterial viability. [Related pubchem assays (depositor defined):AID435030, AID449728, AID449731, AID488942, AID488955, AID488956]; format: functional
[16] = biological target: T8, Polyadenylate-binding protein 1 (Homo sapiens, UniProt P11940); test: MLLE domain peptide-binding blockers, IC50 – biochemical, fluorescence polarization, FITC-PAM2 peptide, dose response (AID 602259); format: functional; conditions: read-out: IC50_Mean
Genome polyprotein = Genome polyprotein (dengue virus type 2, UniProt P29990); test: flavivirus cap methylation enzyme inhibition – biochemical, confirmation dose response, primary screen (AID 588689); format: functional
[17] = biological target: T8, Polyadenylate-binding protein 1; test: MLLE binding blockers, Cy5 peptide tracer – biochemical, fluorescence polarization, Cy5-PAM2 peptide, secondary, miRNA deadenylation inhibitor project, dose response (AID 602260); format: functional; conditions: read-out: IC50_Mean
Large T antigen = Large T antigen (Simian virus 40, UniProt P03070); format: functional, Betapolyomavirus macacae;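 note: Confirmatory-stage PubChem screen for compounds that inhibit SV40 T antigen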
[18] = biological target: Lysine-specific demethylase 4C (Homo sapiens, UniProt Q9H3R0); test: inhibition of JMJD2C H3K9me3 demethylation – biochemical, DELFIA europium, cherry-picked samples, dose response (AID 488835); format: functional
Lysine-specific demethylase 4C, sequence (Q9H3R0 whole entry): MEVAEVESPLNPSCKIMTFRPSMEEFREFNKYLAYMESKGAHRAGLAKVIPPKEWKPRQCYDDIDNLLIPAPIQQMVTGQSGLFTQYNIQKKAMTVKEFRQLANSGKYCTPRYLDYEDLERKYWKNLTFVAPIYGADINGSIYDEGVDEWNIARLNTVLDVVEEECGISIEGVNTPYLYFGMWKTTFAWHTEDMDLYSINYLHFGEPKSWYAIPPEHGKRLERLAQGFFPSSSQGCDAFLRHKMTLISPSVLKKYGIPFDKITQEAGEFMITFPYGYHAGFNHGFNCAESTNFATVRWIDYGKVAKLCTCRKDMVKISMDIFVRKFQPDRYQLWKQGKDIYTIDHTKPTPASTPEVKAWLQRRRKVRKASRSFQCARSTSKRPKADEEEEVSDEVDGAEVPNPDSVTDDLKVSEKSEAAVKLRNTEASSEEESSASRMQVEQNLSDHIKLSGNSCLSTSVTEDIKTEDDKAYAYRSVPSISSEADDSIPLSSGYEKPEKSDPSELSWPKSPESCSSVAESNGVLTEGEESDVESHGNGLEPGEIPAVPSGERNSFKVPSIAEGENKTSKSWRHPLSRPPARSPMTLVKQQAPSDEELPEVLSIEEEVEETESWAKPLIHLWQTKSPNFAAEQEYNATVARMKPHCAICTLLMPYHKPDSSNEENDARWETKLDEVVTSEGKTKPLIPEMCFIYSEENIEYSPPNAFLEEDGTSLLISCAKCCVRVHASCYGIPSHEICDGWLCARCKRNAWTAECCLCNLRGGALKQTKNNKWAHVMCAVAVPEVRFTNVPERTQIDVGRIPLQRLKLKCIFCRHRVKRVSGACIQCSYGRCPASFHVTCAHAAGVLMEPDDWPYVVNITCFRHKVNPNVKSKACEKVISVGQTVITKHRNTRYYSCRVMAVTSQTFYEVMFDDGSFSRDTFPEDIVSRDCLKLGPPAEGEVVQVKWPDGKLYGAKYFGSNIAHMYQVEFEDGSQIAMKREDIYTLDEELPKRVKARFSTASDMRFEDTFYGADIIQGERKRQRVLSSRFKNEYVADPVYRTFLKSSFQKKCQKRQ

T8 sequence (P11940 whole entry, the tested form may be a part): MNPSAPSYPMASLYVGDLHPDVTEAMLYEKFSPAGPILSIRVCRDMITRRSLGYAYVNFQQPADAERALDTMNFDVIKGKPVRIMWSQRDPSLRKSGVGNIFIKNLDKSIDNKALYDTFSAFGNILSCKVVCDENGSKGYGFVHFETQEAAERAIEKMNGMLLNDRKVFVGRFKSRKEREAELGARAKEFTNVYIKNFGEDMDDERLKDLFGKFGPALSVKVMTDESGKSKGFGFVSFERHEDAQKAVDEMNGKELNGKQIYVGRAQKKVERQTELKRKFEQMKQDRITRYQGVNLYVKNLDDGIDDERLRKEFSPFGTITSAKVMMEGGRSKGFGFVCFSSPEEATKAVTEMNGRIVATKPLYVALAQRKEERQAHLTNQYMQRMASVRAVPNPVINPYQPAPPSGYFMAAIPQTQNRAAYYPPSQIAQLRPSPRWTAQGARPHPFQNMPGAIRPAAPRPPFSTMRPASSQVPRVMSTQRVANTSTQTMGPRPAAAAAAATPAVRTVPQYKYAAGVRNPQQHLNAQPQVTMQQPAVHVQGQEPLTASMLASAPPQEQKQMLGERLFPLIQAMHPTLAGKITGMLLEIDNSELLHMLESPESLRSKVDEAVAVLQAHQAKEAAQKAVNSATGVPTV
T2 sequence (P04054 whole entry): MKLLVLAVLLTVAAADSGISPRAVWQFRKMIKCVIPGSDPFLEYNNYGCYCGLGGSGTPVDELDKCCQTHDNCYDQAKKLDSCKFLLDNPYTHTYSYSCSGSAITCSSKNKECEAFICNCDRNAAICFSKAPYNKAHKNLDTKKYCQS
T6 sequence (P09923 whole entry): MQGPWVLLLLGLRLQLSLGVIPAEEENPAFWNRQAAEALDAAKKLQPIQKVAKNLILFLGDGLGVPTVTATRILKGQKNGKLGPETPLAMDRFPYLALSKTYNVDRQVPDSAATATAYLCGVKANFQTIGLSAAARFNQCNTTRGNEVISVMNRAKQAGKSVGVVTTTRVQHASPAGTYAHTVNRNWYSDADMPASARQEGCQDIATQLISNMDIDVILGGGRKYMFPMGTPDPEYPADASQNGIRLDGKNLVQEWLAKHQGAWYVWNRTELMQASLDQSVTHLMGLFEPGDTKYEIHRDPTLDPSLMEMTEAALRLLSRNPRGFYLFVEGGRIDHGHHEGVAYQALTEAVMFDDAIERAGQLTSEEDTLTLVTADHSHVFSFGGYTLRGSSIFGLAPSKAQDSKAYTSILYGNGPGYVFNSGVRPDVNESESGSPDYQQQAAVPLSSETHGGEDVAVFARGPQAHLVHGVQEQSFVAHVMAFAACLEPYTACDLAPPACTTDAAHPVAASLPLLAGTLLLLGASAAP
Intestinal-type alkaline phosphatase (Mus musculus, UniProt P24822), sequence (P24822 whole entry): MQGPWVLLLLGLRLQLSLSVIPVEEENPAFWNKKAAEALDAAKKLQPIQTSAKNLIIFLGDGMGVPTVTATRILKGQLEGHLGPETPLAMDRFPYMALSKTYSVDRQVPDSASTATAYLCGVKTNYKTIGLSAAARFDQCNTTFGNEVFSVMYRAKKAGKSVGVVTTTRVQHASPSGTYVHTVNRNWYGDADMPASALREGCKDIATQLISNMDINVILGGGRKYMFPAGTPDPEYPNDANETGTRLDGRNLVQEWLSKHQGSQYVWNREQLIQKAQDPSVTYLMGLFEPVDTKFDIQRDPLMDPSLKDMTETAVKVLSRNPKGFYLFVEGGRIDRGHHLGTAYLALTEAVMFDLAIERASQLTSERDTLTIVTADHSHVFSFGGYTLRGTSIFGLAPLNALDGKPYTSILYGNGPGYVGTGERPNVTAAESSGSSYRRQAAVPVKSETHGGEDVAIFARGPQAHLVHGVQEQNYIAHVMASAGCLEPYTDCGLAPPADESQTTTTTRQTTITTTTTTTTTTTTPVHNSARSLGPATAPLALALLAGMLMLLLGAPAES
Genome polyprotein, sequence (P29990 2492-3391 limits assumed): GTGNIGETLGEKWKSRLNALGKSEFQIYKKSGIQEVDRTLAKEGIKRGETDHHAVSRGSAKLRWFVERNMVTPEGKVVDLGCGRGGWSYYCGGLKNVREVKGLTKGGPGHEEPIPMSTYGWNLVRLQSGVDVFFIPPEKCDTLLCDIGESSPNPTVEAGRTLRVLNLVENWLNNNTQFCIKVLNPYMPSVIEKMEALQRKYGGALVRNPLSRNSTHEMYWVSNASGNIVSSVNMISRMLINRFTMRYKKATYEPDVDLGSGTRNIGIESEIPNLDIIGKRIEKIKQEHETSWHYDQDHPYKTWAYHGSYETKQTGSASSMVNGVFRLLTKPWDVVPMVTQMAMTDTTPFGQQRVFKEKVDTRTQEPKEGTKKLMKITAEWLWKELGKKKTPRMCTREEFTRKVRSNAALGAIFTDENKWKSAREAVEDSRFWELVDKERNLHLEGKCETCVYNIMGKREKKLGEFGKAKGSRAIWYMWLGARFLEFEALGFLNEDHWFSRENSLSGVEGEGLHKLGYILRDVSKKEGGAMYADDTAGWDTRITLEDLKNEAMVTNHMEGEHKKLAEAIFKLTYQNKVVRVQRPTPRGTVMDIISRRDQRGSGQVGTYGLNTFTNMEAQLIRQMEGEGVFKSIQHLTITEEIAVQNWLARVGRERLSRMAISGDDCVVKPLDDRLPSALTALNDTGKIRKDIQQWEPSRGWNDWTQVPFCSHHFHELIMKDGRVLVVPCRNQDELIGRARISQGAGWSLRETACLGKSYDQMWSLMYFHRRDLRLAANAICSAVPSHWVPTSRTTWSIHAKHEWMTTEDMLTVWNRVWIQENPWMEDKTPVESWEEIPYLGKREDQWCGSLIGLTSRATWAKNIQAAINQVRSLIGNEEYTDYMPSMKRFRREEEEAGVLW
Large T antigen, sequence (P03070 whole entry): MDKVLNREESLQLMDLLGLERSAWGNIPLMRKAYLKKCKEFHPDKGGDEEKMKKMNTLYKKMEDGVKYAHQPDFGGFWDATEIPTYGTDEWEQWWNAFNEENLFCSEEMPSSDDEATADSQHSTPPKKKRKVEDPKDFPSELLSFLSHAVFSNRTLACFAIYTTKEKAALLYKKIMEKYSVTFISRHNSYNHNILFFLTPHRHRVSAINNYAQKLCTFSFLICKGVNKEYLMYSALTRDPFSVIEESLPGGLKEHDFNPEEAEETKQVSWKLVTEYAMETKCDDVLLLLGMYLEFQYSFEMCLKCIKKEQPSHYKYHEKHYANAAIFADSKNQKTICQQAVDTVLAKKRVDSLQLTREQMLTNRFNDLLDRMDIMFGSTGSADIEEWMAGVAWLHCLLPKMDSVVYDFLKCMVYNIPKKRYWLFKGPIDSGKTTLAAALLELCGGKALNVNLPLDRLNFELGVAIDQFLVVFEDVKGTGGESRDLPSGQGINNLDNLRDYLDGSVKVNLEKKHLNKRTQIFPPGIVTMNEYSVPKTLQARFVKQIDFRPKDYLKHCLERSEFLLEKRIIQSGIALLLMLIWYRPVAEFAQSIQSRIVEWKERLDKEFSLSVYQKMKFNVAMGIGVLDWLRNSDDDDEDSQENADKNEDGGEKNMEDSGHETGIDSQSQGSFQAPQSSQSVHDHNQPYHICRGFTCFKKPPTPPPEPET
Cytochrome P450 2C19, sequence (P33261 whole entry): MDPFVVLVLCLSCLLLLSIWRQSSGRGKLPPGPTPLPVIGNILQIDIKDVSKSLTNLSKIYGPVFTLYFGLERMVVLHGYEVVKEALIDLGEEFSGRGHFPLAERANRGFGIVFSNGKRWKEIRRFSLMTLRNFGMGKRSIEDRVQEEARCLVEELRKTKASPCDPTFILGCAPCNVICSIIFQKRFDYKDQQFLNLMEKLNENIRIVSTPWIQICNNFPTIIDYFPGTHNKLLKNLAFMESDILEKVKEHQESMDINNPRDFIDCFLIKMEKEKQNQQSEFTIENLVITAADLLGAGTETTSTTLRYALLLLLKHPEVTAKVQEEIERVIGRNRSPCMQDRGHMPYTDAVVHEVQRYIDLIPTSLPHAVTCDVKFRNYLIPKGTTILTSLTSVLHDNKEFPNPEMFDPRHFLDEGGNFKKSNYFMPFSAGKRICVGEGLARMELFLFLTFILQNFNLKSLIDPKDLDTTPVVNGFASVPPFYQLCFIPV

## COc1ccc(C)cc1/N=c1\ssnc1Cl
Phosphomannomutase 2
  IC50: > 100 µM (inactive)
[1]
  IC50: 22.5 µM (active)

## Cc1cc(/C=N/n2c(COc3ccccc3)nc3ccccc3c2=O)c(O)c([N+](=O)[O-])c1
Phospholipase A2 [2]
  IC50: 13.1 µM (active)
Cysteine protease ATG4B [3]
  IC50: 22.8 µM (inactive)
Cells [4]
  EC50: 31.7 µM (active)
Phospholipase A2 [5]
  IC50: 10.5 µM (active)
Cells [6]
  EC50: > 350 µM (not active)
[7]
  AC50: 20.9 µM (active)
Cysteine protease ATG4B [8]
  IC50: 17.2 µM (active)

## O=S(=O)(c1ccccc1)N1CCC[C@@]2(CCN(Cc3cc(C(F)(F)F)cc(C(F)(F)F)c3)C2)C1
Cytochrome P450 1A2
  AC50: inconclusive

## C/C(=N/Nc1ccccc1[N+](=O)[O-])c1ccc([N+](=O)[O-])cc1
[9]
  IC50: > 100 µM (inactive)
[10]
  IC50: 69.6 µM (inactive)
[11]
  IC50: > 100 µM (inactive)
[12]
  IC50: 77.3 µM (active)

## CC(CC(=O)O)(CC(=O)O)C(=O)O
Cytochrome P450 2C19
  AC50: inconclusive
Cytochrome P450 2D6
  AC50: inconclusive

## NC(=O)c1cc2ccc(O)cc2o/c1=N\Cc1ccccc1
Keap1/Nrf2
  AC50: 18.7 µM (active)

## CC(/C=C\c1cccnc1)=C/C(=O)O
[13]
  EC50: 11 µM (active)

## O=C(Nc1ccc(OCc2ccccc2)cc1)c1cccs1
[14]
  AC50: 62.6 µM (active)
[7]
  AC50: 1.98 µM (active)

## O=C1CCC(=O)N(O)CCCCCNC(=O)CCC(=O)N(O)CCCCNC(=O)CCC(=O)N(O)CCCCCN1 [DESMETHYLENYLNOCARDAMINE]
Exodeoxyribonuclease V
  IC50: > 119 µM (inactive)
[15]
  IC50: > 119 µM (inactive)

## O=C1NC(=O)C(=Cc2csc3ccccc23)C(=O)N1
[16]
  IC50: > 66 µM (inactive)
Genome polyprotein
  IC50: 26.9 µM (active)
[17]
  IC50: > 66 µM (inactive)
Large T antigen
  IC50: 59.7 µM (active)
[18]
  AC50: 6.34 µM (active)
